This is an account of results in patent US20260271926A1, “BACTERIA-RESPONSIVE PARTICLES, METHODS FOR PREPARATION, AND USE IN PACKAGING OR ON SURFACES” (priority 2023, published 2026).

A short description of data set [1]: Calcein fluorescence stability in 1685 NYC III medium and G. vaginalis supernatant. Format: physicochemical. The settings on record: 10 μg/mL calcein, 37° C., 140 hours. As for the experimental part: Bacteria-responsive calcein release of liposomes. Calcein's stability in different media was evaluated by measuring its fluorescence intensity that varied with time in 1685 NYC III medium and G. vaginalis supernatant, respectively. Briefly, calcein was dissolved in the medium to reach a concentration of 10 μg/mL (with 1% v/v penicillin/streptomycin) added. The solution was incubated at 37° C. and shaken at 100 rpm (avoid light). Samples were taken at different time intervals and changes of fluorescence intensity were monitored.

The subject of data set [2] is human red blood cells (RBCs). Kind of data set: Hemolytic activity assay. In kind it is cell-based. The settings on record: 2% human RBCs, 30 min, 37° C. On the procedure: Hemolytic Activity Assay. For hemolytic assays, washed human red blood cells (RBCs) (Innovative Research, Novi, MI USA) were suspended in 1×PBS (pH 7.2, Wisent, Quebec City, QC Canada) to a final concentration of 2%. For sequestration studies, liposomal samples were diluted in PBS to the desired concentration and added to the erythrocytes. The hemolytic reaction was then initiated through the addition of either bacterial supernatant normalized to a 0.5 McFarland standard or recombinant S. pneumoniae serotype 2 PLY (E. coli host expression, MyBioSource, San Diego, CA USA) at the desired volume or concentration. For assays involving PLY, the toxin was preincubated with 2 mM dithiothreitol (DTT) for 1 hr at room temperature prior to the assay in order to reduce the cysteine residue present in the undecapeptide sequence and activate the protein [59]. The solution was incubated in a 1.5 ml Eppendorf microtube for 30 min at 37° C. and non-lysed RBCs were pelleted via centrifugation at 1000×g for 10 min at 4° C. The supernatant was then collected and transferred to a 96 well plate, with the extent of hemoglobin release determined via absorbance measurements at 450 nm. A control set was also included, involving a negative control of RBCs in only PBS and a positive control of RBCs in a 0.02% Triton™ X-100 solution (100% lysis). Percent lysis was determined from these readouts as per Eq (4): […]

For the compound `O=C(O)CN(CC(=O)O)Cc1cc2c(cc1O)Oc1cc(O)c(CN(CC(=O)O)CC(=O)O)cc1C21OC(=O)c2ccccc21` [calcein], in data set [1], the calcein fluorescence decrease is 11-15%.
With pneumolysin [PLY], the “concentration giving full lysis” value in data set [2] amounted to 200 ng/mL.
